Reference: US10160716B2, “Compounds and methods of use thereof for treating tumors” (Georgetown University, priority 2012, dated 2018)
One block for each molecule: values may come before it.

How the values were obtained:
MCF-7 cells = experiment: E2 stimulated proliferation of MCF-7 cells (cell counts); assay type: cell-based, human
Description: Briefly, cells were inoculated into 12-well dishes at 1×10^4 cells per well on day 0 in 5% charcoal-stripped serum (CSS). […] Triplicate wells were counted on days 1-4 to determine the effect of 103(f) on cell growth.

ER-α = biological target: T1, ER-α (Homo sapiens, UniProt P03372); experiment: ERE-TK-Luc reporter assay of E2-stimulated ER-α transcriptional activity in MCF-7 cells; assay type: cell-based; conditions: for IC80: MCF7, read-out: IC80 (concentration required for inhibition of ER-α activity by 80%); for IC50: read-out: IC50 (concentration required for inhibition of ER-α activity by 50%)
T1 construct: endogenous in cells; host or cells: MCF-7
T1 sequence (P03372 1-595): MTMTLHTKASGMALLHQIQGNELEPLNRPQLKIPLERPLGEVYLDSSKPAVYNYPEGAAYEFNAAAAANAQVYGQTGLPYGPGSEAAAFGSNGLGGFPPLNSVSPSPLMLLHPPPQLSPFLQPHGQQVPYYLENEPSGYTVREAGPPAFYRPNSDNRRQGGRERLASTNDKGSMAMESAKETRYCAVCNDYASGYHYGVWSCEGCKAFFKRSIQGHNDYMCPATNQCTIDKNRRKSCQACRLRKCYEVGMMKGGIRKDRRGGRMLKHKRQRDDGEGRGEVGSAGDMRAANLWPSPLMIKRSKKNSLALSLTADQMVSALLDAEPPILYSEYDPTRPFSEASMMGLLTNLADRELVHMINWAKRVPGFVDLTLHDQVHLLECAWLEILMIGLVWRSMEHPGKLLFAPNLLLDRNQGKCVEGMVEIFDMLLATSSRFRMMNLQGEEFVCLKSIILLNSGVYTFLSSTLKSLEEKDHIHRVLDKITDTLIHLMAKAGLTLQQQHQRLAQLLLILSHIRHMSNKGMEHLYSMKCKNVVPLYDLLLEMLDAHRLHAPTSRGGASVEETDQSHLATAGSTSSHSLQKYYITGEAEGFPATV
Method: Briefly, MCF7 or T47D cells are transfected overnight with an ERE-TK-Luc reporter construct. An ERE-TK-Luc construct contains an estrogen response element (ERE) upstream of a minimal thymidine kinase (TK) promoter that drives the expression of the luciferase (Luc) reporter gene. After transfection, the cells are subsequently washed and allowed to recover for several hours. […] The cells are subsequently harvested for luciferase reporter assays.
Three compounds were tested for their ability to inhibit ER-α activity. […] Initially, each compound was tested at doses of 1 μM and 50 μM.

LCC2 = conditions: LCC2, ER-α +; cited from earlier work
LCC1 = conditions: LCC1, ER-α +; cited from earlier work
LCC9 = conditions: LCC9, ER-α +; cited from earlier work
MCF-7 = conditions: MCF-7, ER-α +; cited from earlier work

SMILES: CC(C)=CC1C(COC(=O)c2cc3c(cc2Cl)OCO3)C1(C)C (stereo not drawn) [Compound 103(f)]
effect on E2-stimulated cell growth (MCF-7 cells; 5 μM or 20 μM in the presence of 10 nM E2, P<0.01): blocked most of the E2-stimulated cell growth
effect on cell growth, compound alone (MCF-7 cells; 5 μM or 20 μM, without E2, compared with DMSO, days 1-4): little or no effect on cell growth
IC80 (ER-α): 5 µM
IC50 (ER-α): 3 µM

SMILES: C[C@]12CC[C@@H]3c4ccc(O)cc4CC[C@H]3[C@@H]1CC[C@@H]2O [Compound E2, 17β-estradiol]
cell density by day 4 (MCF-7 cells; DMSO+E2 (10 nM), seeded 1×10^4 cells per well, 2% CSS): 9×10^4 cells per well
Response to Estradiol (E2) (LCC2): E2-dependent growth
Response to Estradiol (E2) (LCC1): Partially E2-depenedent growth
Response to Estradiol (E2) (LCC9): E2-insensitive growth; some E2-responsive
Response to Estradiol (E2) (MCF-7): E2-responsive; E2-dependent growth

SMILES: C[C@]12CC[C@@H]3c4ccc(O)cc4C[C@@H](CCCCCCCCC[S+]([O-])CCCC(F)(F)C(F)(F)F)[C@H]3[C@@H]1CC[C@@H]2O (stereo partly drawn) [Fulvestrant]
Response to Fulvestrant (LCC2): Sensitive
Response to Fulvestrant (LCC1): Sensitive
Response to Fulvestrant (LCC9): Resistant
Response to Fulvestrant (MCF-7): Sensitive

SMILES: CC/C(=C(\c1ccccc1)c1ccc(OCCN(C)C)cc1)c1ccccc1 [Tamoxifen]
Response to Tamoxifen (LCC2): Resistant
Response to Tamoxifen (LCC1): Sensitive
Response to Tamoxifen (LCC9): Resistant
Response to Tamoxifen (MCF-7): Sensitive

Second part, the molecule after the results:

IC80 (ER-α): 50 µM
IC50 (ER-α): 4 µM
SMILES: O=C(O)CCCc1ccc2ccccc2c1 [Compound 201]

IC80 (ER-α): 40 µM
IC50 (ER-α): 12 µM
SMILES: Nc1nc(Cc2ccccc2)nc(Cc2ccccc2)c1-c1ccccc1 [Compound 301]
